Measurements reported in PMC12693135, “Ocular Toxicity and Mechanistic Investigation for Berberine and Its Metabolite Berberrubine on Zebrafish” (Molecules, 2025).

Legend:
[1] = tested on: human lens epithelial cells (HLE-B3); set-up: method as in PMID 17645667; conditions: 25 μM under UVA exposure; cited from earlier work
[2] = tested on: wild-type AB strain zebrafish; assay: qPCR gene expression in zebrafish larvae; type: in vivo, zebrafish (Danio rerio); conditions: BBR 25 or 50 μM, M1 100 or 200 μM
Experimental: Wild-type AB strain zebrafish (6 hpf) were treated with BBR (25 or 50 μM), M1 (100 or 200 μM), or 0.05% DMSO (control) until 5 dpf, with 30 larvae per treatment and three biological replicates (total 90 larvae per group). A total of 30 larvae were pooled per sample (3 samples per group), collected, and homogenized. Total RNA was isolated using a commercial RNA extraction kit following the manufacturer’s protocol. The concentration and purity of the extracted RNA were determined by measuring the absorbance at 260 nm and 280 nm using a NanoDrop 2000 ultraviolet-visible spectrophotometer (Thermo, Waltham, MA, USA). A total of 1 µg of RNA from each sample was reverse-transcribed into complementary DNA (cDNA) using a PrimeScript RT reagent kit (Takara Bio Inc., Dalian, China). The reverse transcription reaction was performed in a T100 Thermal Cycler (BIO-RAD, Singapore) under the following conditions: 37 °C for 15 min, followed by 85 °C for 5 s.
The qPCR reactions were carried out to quantify the relative expression levels of target genes, including photoreceptor-related genes (rho and opn1sw), mitochondrial dynamics genes (mfn2 and drp1), autophagy markers (lc3b and p62), apoptosis-related genes (baxa, bcl2a, caspase9, caspase3, and caspase7), and inflammation-related genes (il1b and il6), on a CFX Connect quantitative real-time PCR instrument (BIO-RAD, Singapore). The experiment was performed according to the manufacturer’s instruction. β-actin served as the internal reference, and the experiment was repeated in triplicate.

[3] = MTT cytotoxicity assay on HCE-T cells; type: cell-based, human; conditions: human, HCE-T human corneal epithelial cells; HCE-T cells, 24 h incubation
Experimental: The human corneal epithelial cell line HCE-T (Cellosaurus accession: CVCL_1272, RRID: CVCL_1272, RCB: RCB2280) was purchased from Procell Life Science and Technology Co., Ltd. (Wuhan, China). […] were cultured in high-glucose Dulbecco’s Modified Eagle Medium (DMEM), which was purchased from Procell Life Science and Technology Co., Ltd. (Wuhan, China). The high-glucose DMEM was DMEM basic medium supplemented with 15% fetal bovine serum (Procell), 1% penicillin/streptomycin (Procell), 5 μg/mL insulin, and 10 ng/mL human epidermal growth factor (Procell).
HCE-T cells were seeded in 96-well plates (8 × 10^3 cells/well, 100 μL medium) and cultured overnight at 37 °C, 5% CO2 for adhesion. BBR or its metabolites at various concentrations (BBR and M3 at the concentrations of 31.25, 62.5, 125, 250 and 500 µM, M1 and M4 at the concentrations of 25, 50, 100, 200 and 400 µM) in 0.5% DMSO were added and incubated for 24 h, with 0.5% DMSO in culture medium as the vehicle control. Subsequently, 20 μL MTT (5 mg/mL) was added to each well and the cells were cultured at 37 °C for 4 h. Then, the culture medium was removed, and 150 μL DMSO was added to dissolve formazan crystals and the absorbance at 570 nm was measured on a Synergy H1 multifunctional microplate reader (Biotek, Winooski, VT, USA). The IC50 values of test compounds were calculated by Graphpad Prism 8.5 (GraphPad Software Co., San Diego, CA, USA).

[4] = tested on: rabbit corneal epithelium; set-up: method as in PMID 32074824; conditions: topical application of 1.5 mg/mL; cited from earlier work
[5] = tested on: transgenic mitochondrial fluorescent zebrafish (strain Tg(Xla.Eef1a1:mlsEGFP)); assay: Fluorescence microscopy for mitochondrial function; type: in vivo, zebrafish (Danio rerio); conditions: 5-dpf larvae; BBR 25 or 50 μM, M1 100 or 200 μM
Experimental: Strain Tg(Xla.Eef1a1:mlsEGFP) zebrafish larvae (6 hpf) were treated with BBR (25 or 50 μM), M1 (100 or 200 μM), or 0.05% DMSO (control) until 5 dpf, with 30 larvae per treatment and three biological replicates (total 90 larvae per group). Then, 10 larvae were randomly selected from each experimental group and imaged using a motorized-focus continuous-zoom fluorescence microscope AZ100 (Nikon, Japan) with the magnification of 10–40× and exposure time of 200–500 ms. The fluorescence intensity of ocular apoptotic cells in zebrafish larvae and mitochondria throughout the zebrafish were measured and analyzed using NIS-Elements (Nikon Imaging Software, Nikon, Japan). The experiment was conducted three times in parallel.

COc1ccc2cc3[n+](cc2c1OC)CCc1cc2c(cc1-3)OCO2 [BBR, berberine]
phototoxic damage to cells [1]: severe damage
bcl2a expression [2]: dose-dependently reduced bcl2a expression
expression of baxa, caspase9, caspase3 and caspase7 [2]: increasing the expression of baxa, caspase9, caspase3 and caspase7
expression of drp1 [2]: increasing that of drp1 in a concentration-dependent manner
expression of lc3b [2]: decreasing the expression of lc3b
expression of mfn2 [2]: decreased the expression of mfn2 dose-dependently
expression of rho and opn1sw genes [2]: reduced the expression of these two genes in a dose-dependent manner
p62 levels [2]: elevation in p62 levels
transcription of il1β and il6 [2]: promoted the transcription of proinflammatory cytokine genes il1β and il6
IC50 at 24 h [3]: 301 µM
corneal epithelial repair [4]: delayed corneal epithelial repair
mitochondrial density [5]: decrease in the mitochondrial density

COc1ccc2cc3[n+](cc2c1O)CCc1cc2c(cc1-3)OCO2 [M1, berberrubine]
bcl2a expression [2]: dose-dependently reduced bcl2a expression
expression of baxa, caspase9, caspase3 and caspase7 [2]: increasing the expression of baxa, caspase9, caspase3 and caspase7
expression of drp1 [2]: increasing that of drp1 in a concentration-dependent manner
expression of lc3b [2]: decreasing the expression of lc3b
expression of mfn2 [2]: decreased the expression of mfn2 dose-dependently
expression of rho and opn1sw genes [2]: reduced the expression of these two genes in a dose-dependent manner
p62 levels [2]: elevation in p62 levels
transcription of il1β and il6 [2]: promoted the transcription of proinflammatory cytokine genes il1β and il6
IC50 at 24 h [3]: 232 µM
mitochondrial density [5]: decrease in the mitochondrial density
